Data as given in patent publication US12121596B2, “Near infrared fluorescent dyes, formulations and related methods” (Washington University, priority 2019, dated 2024).
Positions of bridges follow the written chain, without caps; N, C: chain ends. Non-standard residues stand in square brackets, D forms with d. Residues, ends and D or L forms follow the SMILES beside them. *: point of attachment. X1 = CC1(C)C(/C=C/C=C/C=C/C=C2/N(CCC(=O)*)c3ccc4ccccc4c3C2(C)C)=[N+](CCC(=O)[O-])c2ccc3ccccc3c21

Tests used:
[1] = system: lysates of insulin-stimulated, pANXA2-expressing 4T1 cells; test: Binding to lysates of insulin-stimulated 4T1 cells; parameters: species or system murine; conditions: read-out: apparent Kd, 4T1 cell lysates
Experimental: MST was performed using the Monolith NT.115 (Nanotemper Technologies, Munich, Germany). The appropriate agent(s) and LS301 stock samples were denatured in MST-1 buffer (50 mM Tris-HCl, pH 7.4; 150 mM NaCl; 10 mM MgCl2; 2% DMSO; 0.1% Tween-20; 4% SDS, 4 mM dithiothreitol (DTT)) at 97° C. for 10 min. Fluorescence was assessed in MST-2 buffer (50 mM Tris-HCl, pH 7.4; 150 mM NaCl; 10 mM MgCl2). The protein was prepared in MST-2 buffer, and 20 μL serial dilutions were made with protein concentration ranging from 3.05 pM to 50 nM (pANXA2) or 3.81 pM to 62.5 nM (ANXA2). All samples were loaded into NT.115 standard capillaries. The analysis was performed at 37° C., 30% LED power, 60% MST power, and a constant LS301 concentration of 20 nM. The apparent Kd values were calculated from fragment concentration-dependent changes in normalized fluorescence (Fraction Bound) of LS301 after 5 seconds of thermophoresis based on mass action law using the MO Affinity Analysis v2.3 software.
For Western blot analysis of insulin/PP2-induced change in cellular pANXA2 levels, 4T1 cells were treated with insulin or PP2 as above, lysed, and subjected to SDS-PAGE analysis. […]

ANXA3 = target: T1, ANXA3 (Homo sapiens, UniProt P12429); test: Microscale thermophoresis (MST), ANXA3 binding; conditions: read-out: apparent Kd, ANXA3
T1 construct: purchased MyBioSource, Inc
T1 sequence (P12429 1-323): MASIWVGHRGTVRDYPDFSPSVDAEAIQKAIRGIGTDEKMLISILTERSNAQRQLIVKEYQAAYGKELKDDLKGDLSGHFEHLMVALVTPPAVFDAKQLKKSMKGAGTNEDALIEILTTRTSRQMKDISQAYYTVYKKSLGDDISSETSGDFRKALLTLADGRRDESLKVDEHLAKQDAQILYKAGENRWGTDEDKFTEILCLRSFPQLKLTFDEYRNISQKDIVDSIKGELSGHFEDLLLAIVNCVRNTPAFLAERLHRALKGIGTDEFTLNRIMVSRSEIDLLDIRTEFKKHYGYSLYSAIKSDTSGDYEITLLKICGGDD
Excerpt: Recombinant proteins and antibodies. Recombinant annexin A2, annexin A2 with glutathione-S-transferase (GST) tag, annexin A1, and annexin A3 proteins were purchased from MyBioSource, Inc. (San Diego, CA, USA). Purified ANXA2 protein and purified pANXA2 protein were gifts from Dr. Gabriel Bimme (Beth Israel Deaconess Medical Center, Boston, MA). Rabbit monoclonal anti-annexin A2 antibody (D11G2, #8235), Rabbit monoclonal anti-Rab5 (C8B1, #3547), and rabbit monoclonal anti-Rab7 (D95F2, #936 7) primary antibodies were purchased from Cell Signaling Technology, Inc. (Danvers, MA, USA). Mouse monoclonal anti-β-actin 2A3 (sc-517582), mouse monoclonal anti-pANXA2 antibody (11.Tyr 24) (sc-135752), rabbit polyclonal anti-NOS2 (C-19, sc-649), rabbit polyclonal anti-ARG1 (H-52, sc-20150) antibodies, and protein A/G agarose were purchased from Santa Cruz Biotechnology, Inc. (Dallas, TX, USA). […]
MST was performed using the Monolith NT.115 (Nanotemper Technologies, Munich, Germany). […] Fluorescence was assessed in MST-2 buffer (50 mM Tris-HCl, pH 7.4; 150 mM NaCl; 10 mM MgCl2). […] The apparent Kd values were calculated from fragment concentration-dependent changes in normalized fluorescence (Fraction Bound) of LS301 after 5 seconds of thermophoresis based on mass action law using the MO Affinity Analysis v2.3 software.

tumor = test: NIR contrast evaluation of DMSO and ethanol-based formulations; assay type: in vivo
Excerpt: No difference in histology between the various solvents was seen.

[2] = Solubility and dilution stability of LS301 stock solutions; assay type: physicochemical; conditions: transparent solution, no precipitate after centrifugation
Experimental: At room temperature (˜25° C.), 200 μL of DMSO was added to 0.5 mg LS301 and vortexed for about 1 minute to homogenize. The solution was centrifuged to remove any non-dissolved components. The concentration was measured via absorbance.
Generally, solution concentrations ranged between 290 and 330 μM. This concentrated solution was diluted dropwise into 800 μL phosphate-buffered saline (PBS) calculated such that the final concentration was 60 μM LS301 and that the final concentration was 20% DMSO/80% PBS by volume (“20% DMSO”).
A 1:1 PEG400/Ethanol solution (v/v) was prepared by mixing 4 mL of PEG400 and 4 mL of ethanol and vortexing at high speed for 1 minute. 200 μL of this 1:1 solution was added to about 0.5 mg of LS301 to produce a transparent solution (>300 μM). No precipitate was observed after centrifugation.
LS301's solubility in ethanol ranged near the cutoff for producing a 20% ethanol/PBS solution. […] The 1:1 PEG400/ethanol solution could maintain stability up to about 1-to-16 dilution. In vivo, a screening test was done by IV injection of 60 μM solution into a Balb/c mouse with two 4T1luc tumors dorsally injected. […] To confirm LS301's multitumor affinity in the new solvent, solutions were tested against HT1080, A431, and DBT tumor-bearing mice.

CC1(C)C(/C=C/C=C/C=C/C=C2/N(CCC(=O)N[C@@H]3CSSC[C@@H](C(=O)N[C@@H](CCCCN)C(=O)O)NC(=O)[C@@H]4CCCN4C(=O)[C@H](CO)NC(=O)[C@H](CC(=O)O)NC(=O)[C@H](CCCNC(=N)N)NC(=O)CNC3=O)c3ccc4ccccc4c3C2(C)C)=[N+](CCC(=O)[O-])c2ccc3ccccc3c21 [LS301, cypate-cyclic (DCys-Gly-Arg-Asp-Ser-Pro-Cys)-Lys-OH] (X1-[dC]GRDSPCK-OH; disulfide 1-7)
Kd [1]: 0.017 ± 0.004 nM | Kd (ANXA3): 6.13 ± 0.28 nM | tumor uptake compared to renal or hepatic clearance (tumor; 20% PEG400 solutions): increased tumor uptake | NIR contrast (tumor; in 20% PEG400): significantly increased contrast | clearance mechanism (tumor; in vivo): cleared via renal and hepatic mechanisms | solution concentration in 1:1 PEG400/Ethanol [2]: > 300 µM
